Reference: ChEMBL document CHEMBL4665709, “Rational Avoidance of Protease Cleavage Sites and Symmetrical End-Tagging Significantly Enhances the Stability and Therapeutic Potential of Antimicrobial Peptides” (J Med Chem, 2020)
≈ marks a conversion by molar mass, not a printed value. Calls of active or inactive are those of the source. The rule behind the calls is not given here. Where a SMILES comes first, the peptide text is derived from it.

Columns and labels:
[1] = test system: Salmonella typhimurium; assay: Antibacterial activity against Salmonella typhimurium 7731 after 18 to 24 hrs by CLSI-based broth microdilution method; assay type: functional, Salmonella enterica subsp. enterica serovar Typhimurium; settings: Salmonella enterica, time hrs 18-24
[2] = test system: Escherichia coli; assay: Antibacterial activity against Escherichia coli ATCC 25922 measured after 18 to 24 hrs in presence of proteinase K by CLSI-based broth microdilution method; assay type: functional, organism-based; settings: time hrs 18-24
[3] = test system: Escherichia coli; assay: Antibacterial activity against Escherichia coli ATCC 25922 infected in C57BL/6 mouse reduction in inflammatory cell infiltration in liver at 10 mg/kg, ip measured after 11 hrs by hematoxylin and eosin staining based assay; assay type: functional, organism-based
[4] = test system: Escherichia coli; assay: Antibacterial activity against Escherichia coli ATCC 25922 after 18 to 24 hrs in presence of 100% human serum by CLSI-based broth microdilution method; assay type: functional; settings: time hrs 18-24

CC[C@H](C)[C@H](N)C(=O)N[C@H](C(=O)N[C@H](C(=O)N[C@@H](CS)C(=O)N[C@@H](CCCNC(=N)N)C(=O)N[C@@H](CCCCN)C(=O)N1CCC[C@H]1C(=O)N[C@H](C(=O)N[C@H](C(=O)N[C@@H](CS)C(=O)N[C@@H](CCCNC(=N)N)C(=O)N[C@@H](CCCCN)C(=O)N1CCC[C@H]1C(=O)N[C@H](C(=O)N[C@H](C(=O)N[C@@H](CS)C(=O)N[C@@H](CCCNC(=N)N)C(=O)N[C@@H](CCCCN)C(=O)N1CCC[C@H]1C(=O)N[C@H](C(=O)N[C@H](C(=O)N[C@@H](CS)C(=O)N[C@@H](CCCNC(=N)N)C(=O)N[C@@H](CCCCN)C(=O)N1CCC[C@H]1C(=O)N[C@H](C(=O)N[C@H](C(=O)N[C@H](C(N)=O)[C@@H](C)CC)[C@@H](C)CC)[C@@H](C)CC)[C@@H](C)CC)[C@@H](C)CC)[C@@H](C)CC)[C@@H](C)CC)[C@@H](C)CC)[C@@H](C)CC)[C@@H](C)CC)[C@@H](C)CC (H-IIICRKPIICRKPIICRKPIICRKPIII-NH2)
MIC [1]: 2 µM (≈ 6.63 µg/mL) | Activity [2]: Active | Activity [3]: Active | MIC [4]: 8 µM
